One experiment has as its system Mel1617-BR. Put plainly: Cell proliferation and viability, methylene-blue staining. The class given is cell-based. Conditions: Homo sapiens, 72 h, melanoma, 3 days exposure. The method, then: (§1) All melanoma cells used and discussed in FIGS. 6-9 and table 1 are from human origin and bearing the mutated BRAF^600K/E.
(§2) Cells were grown in complete medium and treated with inhibitors one day following seeding. 72 hours later, the surviving cells were quantified by methylene blue staining or by WST-1 staining for nonadherent cells (Roche).
(§3) Cells were plated in 96-well plates in 5-10% FCS in medium; a day later exposed to various concentrations of compound A, compound D or OSI-906 and 3 days later stained with methylene-blue and the relative cell number was quantified.

For a further experiment, the system named is Mel1617-Pa. Described as above. The experiment is classed as cell-based. As to conditions: Homo sapiens, 72 h, melanoma, 3 days exposure. The method, then:
as §1, §2, §3

Another experiment deals with 451Lu-BR. The description is as above. The class given is cell-based. As to conditions: Homo sapiens, 72 h, melanoma, 3 days exposure. Here is the method: (§4) All cell lines were obtained from the American Type Culture Collection. YUMAC, YURIF, YUSIK (all human melanoma, kindly provided by Prof. Ruth Halaban, Yale University, New Haven, Conn.) were cultured in OptiMEM containing 5% FCS. M571, M2068, M560n (all human melanoma, kindly provided by Dr. Michal Lotem, Hadassah Hospital, Jerusalem, Israel) were maintained in RPMI, DMEM and F12 (1:3:1) containing 10% FCS. 451-Lu (human melanoma) and 451-Lu-BR (PLX4032-resistant melanoma; ref. 32) were maintained in RPMI containing 5% FCS (media for resistant lines contained […] PLX4032). All media were supplemented with 100 U/mL penicillin and […] and all cells were grown at 37° C./5% CO2.
as §1, §2, §3

For another experiment, the system named is 451Lu-Pa. Described as above. The class given is cell-based. Conditions: Homo sapiens, 72 h, melanoma, 3 days exposure. Here is the method:
as §4, §1, §2, §3

The test system of the next experiment is HCT15. Described as above. The experiment is classed as cell-based. As to conditions: Homo sapiens, HCT-15, 72 h; HCT15, colon cancer; 3 days exposure. Here is the method:
Cells were grown in complete medium and treated with inhibitors one day following seeding. 72 hours later, the surviving cells were quantified by methylene blue staining or by WST-1 staining for nonadherent cells (Roche). Cells were plated in 96-well plates in 5-10% FCS in medium; a day later exposed to various concentrations of compound A, compound D or OSI-906 and 3 days later stained with methylene-blue and the relative cell number was quantified.

Another experiment has as its system MM1S. Briefly: Cell proliferation and viability. The class given is cell-based. As to conditions: Homo sapiens, MM1.S, 72 h, multiple myeloma, 3 days exposure. Here is the method: as §2, §3
The test system of the next experiment is HepG2. Put plainly: Cell proliferation and viability, methylene-blue staining. The experiment is classed as cell-based. Conditions: Homo sapiens, 72 h; HepG2, hepatocarcinoma; 3 days exposure. Here is the method:
as §2, §3

Another experiment relates to PC3. Described as above. The class given is cell-based. As to conditions: Homo sapiens, PC-3, 72 h; PC3, prostate cancer; 3 days exposure. Here is the method:
as §2, §3

Experiment [1] has as its system phospho-Y705 Stat3 (pSTAT3) in melanoma A375 cells. Put plainly: Immunoblot of Stat3 Y705-phosphorylation in intact cells. The experiment is classed as cell-based, human. As to conditions: Homo sapiens, A-375. The method, then: FIGS. 6A-6E. […] A. Human melanoma A375 cells were treated with the indicated concentrations of compounds A or D for 1.3 and 4.5 hr. Cells were lysed and immunoblotted with antibodies against phospho-Y705 Stat3 (pSTAT3) and Stat3. […] B. Cells were treated with 2 μM Compound A and lysed following the indicated times. C. A375 cells were treated with compound D for 4 hr, then washed with medium several times and lysed after 4, 24 and 48 hr of incubation without inhibitors.
(§5) • Cells were treated as indicated in FIGS. 6-9 and the corresponding figure legends, following overnight serum-starvation (unless indicated differently). When cells were treated with both PLX4032 and compounds A or D, PLX4032 was added 3-4 hr following the compounds. • Cells were lysed with boiling sample buffer (10% glycerol, 50 mmol/L Tris-HCl, pH 6.8, 3% SDS, and 5% 2-mercaptoethanol). Western blot analysis was conducted in 8% SDS-PAGE, using antibodies described below. • Aliquots of cell extracts containing equal amounts of protein were resolved by 8% SDS/PAGE and electroblotted onto nitrocellulose filters. The membranes were blocked with low-fat milk diluted 1:20 in TBST (NaCl/Tris containing 0.2% Tween-20) for 0.5 hr, incubated with Rabbit anti-phosphoY705-Stat3 antibody (Cell signaling cat #9131), Mouse anti-ERK-diphosphorylated-YT (Sigma Aldrich cat #M8159) or anti-PARP antibodies overnight at 4 C in 5% BSA in TBST containing 0.05% azid, washed extensively with TBST and then incubated with horseradish peroxidase-conjugated secondary antibodies for 45 min at room temperature in 5% BSA in TB ST. • Immunoreactive bands were visualized using enhanced chemiluminescence. Membranes were re-blotted with Mouse anti-Stat3 antibody (Transduction labs cat #21320) or with Rabbit anti AKT1/2 (Santa cruz cat #sc-8312) or Anti-Actin as described above. IV. Chemotaxis of Peripheral Blood Mononuclear Cells (PBMCs)
On the technique in general: In western blotting, separated proteins are transferred to a membrane and probed.

Experiment [2] concerns pStat3 in A375, 451-Lu, Mel1617 cells. Put plainly: Immunoblot of basal and PLX4032-induced pStat3 in PLX4032-sensitive melanoma cells. Conditions: PLX4032 1 μM added 3-4 hr after the compounds (FIG. 7C-E, 8A). The class given is cell-based, human. The method, then: FIGS. 7A-7E. […] FIG. 7A. […] FIG. 7B. […] Cells from patients were grown in complete medium and immunoblotted as described above. […] Compounds A/D block the basal and the PLX4032-induced pStat3. Treatment of PLX4032-sensitive human melanoma A375 (C), 451-Lu (D) or Mel1617 (E) cells with 1 μM PLX4032 for 18-24 hr induces a dramatic increase in pStat3. Compounds A (FIG. 7C, D) or D (FIG. 7E) block both the basal and the PLX4032-induced pStat3. OSI-906, an ATP-competitive inhibitor of IGF1R, has no effect on pStat3.
as §5

Experiment [3] has as its system pStat3 in 451-LU-BR, Mel1617-BR and patient cells M2068, M571. Put plainly: Immunoblot of pStat3 in BRAFi-resistant melanoma cells. The class given is cell-based, human. The method, then: FIGS. 8A-8D. […] FIG. 8C. […] FIG. 8D. Cells of various cancer types were treated with compound D for 4 hr in serum-free medium, and 20 hr in medium with or without 10% serum. Asterisks indicate 10 μM concentration for RPMI8226 and HepG2 cells.
as §5

A further experiment deals with A375 melanoma cells. Put plainly: Apoptosis after short exposure and wash-out. The class given is cell-based, human. Conditions: 4 hr exposure, washed; 24 and 48 hr later (FIG. 6C). The method, then:
as §5, with “Chemotaxis of Peripheral Blood Mononuclear Cells (PBMCs)” left out

The test system of experiment [4] is Uteral AdenoSarcoma biopsy. Put plainly: PDX efficacy study with Afinitor, repeat (Example 5A). Conditions: Afinitor 5 mg/kg PO, Compound D 70 mg/kg IV. The class given is in vivo, NodScid mice. Here is the method:
The experiment described in Example 4 was repeated in purchased mice from Harlan.
• 1. […] Afinitor 5 mg/kg PO, 4 times a week (17 mice). • 4.

For a further experiment, the system named is HNSCC tumor biopsy. Put plainly: PDX efficacy study, tumor recurrence after Cetuximab±Afatinib (Example 7). The experiment is classed as in vivo, NodScid mice. As to conditions: 9 days of treatment; start ~113 mm^3.
For experiment [5], the system named is Adenoid Cyctic Carcinoma tumor biopsy. Briefly: PDX efficacy study with Trametinib (Example 9). The experiment is classed as in vivo, NodScid mice. Conditions: day0-day13; start ~65 mm^3; Trametinib 1 mg/kg PO, Compound D 70 mg/kg IV.
Text: Experimental system: Patient-derived xenograft (PDX) of Adenoid Cyctic Carcinoma tumor biopsy subcutaneous implanted into NodScid mice.
• Biopsy: Fresh human primary Adenoid Cyctic Carcinoma tumor biopsy. […] The mice were randomly divided into treatment groups including 5 animals/group. The vehicle-treated group included 4 mice. II. Treatments and Procedures
Treatment groups included: • 1. Vehicle-control: vehicle of Trametinib (5% Propylene Glycol, 0.5% Tween-80, 30% PEG 400 in Sterile DDW) 200 μl PO (5 times/week, qd). • 2. […] Trametinib 1 mg/kg PO (5 times/week, qd). • 4.
(§6) The length (l) and the width (w) of the tumors were measured 2-4 times a week and the volumes of the tumors were calculated as follows: v=lw^2/2.
In experiment [6] the test system is colon metastatic carcinoma biopsy. Put plainly: PDX efficacy study with Cetuximab and FOLFIRI (Example 12). As to conditions: start ~110 mm^3; 14 days. The class given is in vivo, NodScid mice.
Experimental: Experimental system: Patient-derived xenograft (PDX) of human primary colon metastatic carcinoma biopsy subcutaneous implanted into NodScid mice.
The length (l) and the width (w) of the tumors were measured 4 times a week and the volume of the tumors were calculated as follows: v=lw^2/2.
Experiment [7] relates to Uteral AdenoSarcoma biopsy. Put plainly: PDX efficacy study with Afinitor (Examples 4 and 5). Conditions: phase I.
Experimental: Treatments and Procedures
Treatment groups included: • 1. Control: 20% HPbCD 50 ul IP, qod (6 mice). • 2. […] Afinitor 5 mg/kg PO, qod (15 mice). • 4. Afinitor 5 mg/kg PO (qod)+Compound D 70 mg/kg IV (qod), 6 mice. Afinitor was administered ˜4 hr following Compound D.
All treatments were initiated simultaneously on day0.
The length (l) and the width (w) of the tumors were measured every other day and the volumes of the tumors were calculated as follows: v=lw^2/2.
Following treatments described in phase I (example 4), the mice whose tumors reached the end point were sacrificed, and the following treatments were continued.
• 1. The Afinitor-responder group (group A, open squares) was administered with Afinitor 5 mg/kg PO, qd (8 mice). • 2. The combined treatment group (open circles) continued to get the Afinitor 5 mg/kg PO (qod)+Compound D 70 mg/kg IV (qod) treatment (6 mice). Afinitor was administered ˜4 hr following Compound D. Phase III:
The group was divided to two groups of 4 mice each which received the following treatments on day6 onwards: • The first continued to get Afinitor 5 mg/kg PO, qd (4 mice) • and the second got Afinitor 5 mg/kg PO (qod)+Compound D 70 mg/kg IV (qod) combined treatment (4 mice). Afinitor was administered ˜4 hr following Compound D.
The test system of experiment [8] is Squamous Cell carcinoma of Head&Neck (SCCHN) tumor biopsy. Briefly: PDX efficacy study, acquired resistance to Erlotinib (Example 1). Conditions: start ~80 mm^3; Erlotinib 100 mg/kg PO, Compound D 70 mg/kg IV; two weeks.

In general, IC50 refers to the concentration needed to halve the response being measured.

SMILES strings stand for the structures. Like-named read-outs stand apart in the source and are kept apart here.

Experimental for HNSCC tumor biopsy: Experimental system: Patient-derived xenograft (PDX) of HNSCC tumor biopsy subcutaneous implanted into NodScid mice.
• Implantation of HNSCC tumor biopsy graft (P6) into NodScid mice for efficacy study: Few months following implantation of frozen HNSCC tumor biopsy graft (P1) in mice, tumor cells (P6) were injected into NodScid mice (generated by in-house breeding), using the same procedure described for implantation of P1. The original biopsy is the same as described above and the P indicates passages (implantation number in mice). • Onset of tumor growth (palpable tumor mass) was detected four days following cell injection. Five days later, treatments initiated in mice which developed tumors sized around 113 mm^3. […] Treatments and Procedures
Treatment groups included: • 1. Vehicle-control: Vehicle (0.5% Hydroxymethyl-cellulose, 0.4% Tween-80) 200 μl PO (5 times/week, qd). • 2. Compound D 70 mg/kg in HPbCD, IV (3 times/week, qod). • 3.
as §6

With `Oc1cc(CNC(=S)/C=C/c2ccc(O)c(O)c2Br)cc(O)c1O` [Compound D], the IC50 in the experiment on Mel1617-BR was found to be 300 nM; with Mel1617-Pa it was 200 nM; in the experiment with 451Lu-BR, 600 nM; with 451Lu-Pa, 300 nM; with HCT15, 800 nM; with MM1S it was 200 nM. For the same compound, the IC50 is 700 nM with HepG2; 500 nM in the experiment with PC3; around 2000 nM in [1] (A375 cells, 1.3 hr post-treatment (FIG. 6A), read-out: IC50 of inhibition of Stat3 phosphorylation (pStat3)); below 1000 nM in [1] (A375 cells, 3 hr later (4.5 hr treatment, FIG. 6A), read-out: IC50 of inhibition of Stat3 phosphorylation (pStat3)); below 1000 nM in experiment [1] (FIG. 6D, read-out: IC50 of dose-dependent inhibition of pStat3). In experiment [2], the “effect on basal and PLX4032-induced pStat3 levels” value is “block both the basal and the PLX4032-induced levels of pStat3”. Further, the “effect on Stat3 phosphorylation in PLX4032-resistant melanoma cells” value in experiment [3] (451-LU-BR, Mel1617-BR, patient cells M2068 and M571 (FIG. 8A-C)) is listed as “block Stat3 phosphorylation completely”. Further, the “relative activity on pStat3 in melanoma cells from patients who acquired resistance to PLX4032” value in experiment [3] (FIG. 8C) was “better activity of compound D compared with compound A”. The “cell apoptosis after short exposure” value with A375 melanoma cells is “sufficient to induce cell apoptosis 24 and 48 hr later”. Further, the “effect on tumor growth” value in experiment [4] was “no effect on tumor growth”; in experiment [6] it was “No effect on tumor growth”; in experiment [7] (four days, Afinitor 5 mg/kg PO, Compound D 70 mg/kg IV), “no significant effect on tumor growth”. Moreover, in the experiment on HNSCC tumor biopsy, the “tumor response while on treatment” value is on record as “aggressively progressed”. Moreover, the “tumor response, first phase” value in experiment [5] is reported as “moderate tumor growth inhibition”. Also, the responder mice entry in [7] is “none of the mice responded”. In addition, in experiment [8], the “tumor response (tumor volume)” value is recorded as “has not responded”.

(Values after patent US12201592B2, “Combinations of IRS/STAT3 dual modulators and anti-cancer agents for treating cancer” (TYRNOVO LTD., priority 2015, dated 2025).)
